# Experiments:
# [1] = target: Glycogen synthase kinase-3 beta (Homo sapiens, UniProt P49841); assay: biochemical
# Description: Inhibition of recombinant human N-terminal His6-tagged GSK3beta H350L mutant expressed in baculovirus infected Sf21 cells using prephosphorylated polypeptide as substrate incubated for 1 min followed by substrate addition and measured after 30 mins by Kinase-Glo luminescence assay
# Acetylcholinesterase = Acetylcholinesterase (Homo sapiens, UniProt P22303); assay: Inhibition of human recombinant AChE expressed in HEK293 cells using acetylthiocholine iodide as substrate incubated for 10 mins by Ellman's method; format: cell-based
# Cholinesterase = Cholinesterase (Homo sapiens, UniProt P06276); assay: Inhibition of human BChE using butyrylthiocholineiodide as substrate incubated for 10 mins by Ellman's method
# in vitro = conditions: PAMPA
# Description: Effective permeability of compound in PBS/EtOH buffer (7:3) at 25 ug/ml incubated for 18 hrs by PAMPA-BBB assay
# [2] = AUC (0 to infinity) in Sprague-Dawley rat at 10 mg/kg, iv by LC-MS/MS analysis; format: ADME, organism-based; set-up: time infinity, route intravenous, dose 10 mg/kg; conditions: in vivo
# [3] = Volume of distribution in Sprague-Dawley rat at 10 mg/kg, iv measured upto 24 hrs by LC-MS/MS analysis; format: ADME, organism-based; conditions: in vivo
# [4] = MRT (0 to t) in Sprague-Dawley rat at 10 mg/kg, iv measured upto 24 hrs by LC-MS/MS analysis; format: ADME, organism-based; conditions: in vivo
# [5] = AUC (0 to infinity) in Sprague-Dawley rat at 10 mg/kg, po by LC-MS/MS analysis; format: ADME, organism-based; set-up: route oral, time infinity, dose 10 mg/kg; conditions: in vivo
# [6] = Cmax in Sprague-Dawley rat at 10 mg/kg, iv measured upto 24 hrs by LC-MS/MS analysis; format: ADME, organism-based; set-up: route intravenous, dose 10 mg/kg, time <=24; conditions: in vivo
# [7] = Clearance in Sprague-Dawley rat at 10 mg/kg, po measured upto 24 hrs by LC-MS/MS analysis; format: ADME, organism-based; conditions: in vivo
# [8] = Half life in Sprague-Dawley rat at 10 mg/kg, po measured upto 24 hrs by LC-MS/MS analysis; format: ADME, organism-based; conditions: in vivo
# [9] = Volume of distribution in Sprague-Dawley rat at 10 mg/kg, po measured upto 24 hrs by LC-MS/MS analysis; format: ADME, organism-based; conditions: in vivo
# [10] = MRT (0 to t) in Sprague-Dawley rat at 10 mg/kg, po measured upto 24 hrs by LC-MS/MS analysis; format: ADME, organism-based; conditions: in vivo
# [11] = Oral bioavailability in Sprague-Dawley rat at 10 mg/kg measured upto 24 hrs by LC-MS/MS analysis; format: ADME, organism-based; conditions: in vivo
# [12] = Tmax in Sprague-Dawley rat at 10 mg/kg, iv measured upto 24 hrs by LC-MS/MS analysis; format: ADME, organism-based; conditions: in vivo
# [13] = Tmax in Sprague-Dawley rat at 10 mg/kg, po measured upto 24 hrs by LC-MS/MS analysis; format: ADME, organism-based; conditions: in vivo
# [14] = AUC (0 to 24 hrs) in Sprague-Dawley rat at 10 mg/kg, iv measured upto 24 hrs by LC-MS/MS analysis; format: ADME, organism-based; set-up: route intravenous, dose 10 mg/kg, time <=24; conditions: in vivo
# [15] = Half life in Sprague-Dawley rat at 10 mg/kg, iv measured upto 24 hrs by LC-MS/MS analysis; format: ADME, organism-based; conditions: in vivo
# [16] = Clearance in Sprague-Dawley rat at 10 mg/kg, iv measured upto 24 hrs by LC-MS/MS analysis; format: ADME, organism-based; conditions: in vivo
# [17] = AUC (0 to 24 hrs) in Sprague-Dawley rat at 10 mg/kg, po measured upto 24 hrs by LC-MS/MS analysis; format: ADME, organism-based; set-up: route oral, dose 10 mg/kg, time <=24; conditions: in vivo
# [18] = Cmax in Sprague-Dawley rat at 10 mg/kg, po measured upto 24 hrs by LC-MS/MS analysis; format: ADME, organism-based; set-up: route oral, dose 10 mg/kg, time <=24; conditions: in vivo
# Sequence of Acetylcholinesterase (P22303 whole entry): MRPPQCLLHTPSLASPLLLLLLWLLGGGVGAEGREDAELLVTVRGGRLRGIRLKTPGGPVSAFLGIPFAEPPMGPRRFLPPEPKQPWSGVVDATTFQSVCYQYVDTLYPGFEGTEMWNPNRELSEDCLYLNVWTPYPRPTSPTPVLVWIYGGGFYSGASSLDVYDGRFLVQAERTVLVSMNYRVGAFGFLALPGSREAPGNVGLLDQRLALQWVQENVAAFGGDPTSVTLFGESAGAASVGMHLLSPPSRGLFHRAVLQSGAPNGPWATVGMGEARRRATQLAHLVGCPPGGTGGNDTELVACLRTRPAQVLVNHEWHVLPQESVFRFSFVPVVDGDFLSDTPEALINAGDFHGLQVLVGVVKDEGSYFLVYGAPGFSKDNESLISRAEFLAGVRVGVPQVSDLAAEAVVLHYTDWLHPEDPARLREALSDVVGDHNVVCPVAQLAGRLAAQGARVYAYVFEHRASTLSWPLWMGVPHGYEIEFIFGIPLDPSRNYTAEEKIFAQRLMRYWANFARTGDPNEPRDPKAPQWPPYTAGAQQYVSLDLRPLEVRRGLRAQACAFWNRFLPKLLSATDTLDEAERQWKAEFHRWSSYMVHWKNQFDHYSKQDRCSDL
# Sequence of Cholinesterase (P06276 whole entry): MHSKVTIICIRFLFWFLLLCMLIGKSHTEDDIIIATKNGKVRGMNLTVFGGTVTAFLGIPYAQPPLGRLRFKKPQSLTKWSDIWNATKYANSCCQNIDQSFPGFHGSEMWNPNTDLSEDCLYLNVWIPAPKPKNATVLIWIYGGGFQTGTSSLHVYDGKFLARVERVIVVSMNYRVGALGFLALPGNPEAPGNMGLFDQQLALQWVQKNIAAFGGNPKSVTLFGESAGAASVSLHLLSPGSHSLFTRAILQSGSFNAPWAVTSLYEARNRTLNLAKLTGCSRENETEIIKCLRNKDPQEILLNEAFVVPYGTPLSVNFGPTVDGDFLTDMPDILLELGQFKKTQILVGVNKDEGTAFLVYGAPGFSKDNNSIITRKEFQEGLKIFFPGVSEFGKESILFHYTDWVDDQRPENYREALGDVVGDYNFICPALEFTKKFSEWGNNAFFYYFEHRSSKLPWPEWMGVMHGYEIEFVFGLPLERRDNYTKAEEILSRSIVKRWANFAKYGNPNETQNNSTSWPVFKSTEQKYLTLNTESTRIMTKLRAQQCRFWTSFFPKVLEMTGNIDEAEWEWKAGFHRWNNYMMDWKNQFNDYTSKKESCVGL
# Sequence of Glycogen synthase kinase-3 beta (P49841 whole entry): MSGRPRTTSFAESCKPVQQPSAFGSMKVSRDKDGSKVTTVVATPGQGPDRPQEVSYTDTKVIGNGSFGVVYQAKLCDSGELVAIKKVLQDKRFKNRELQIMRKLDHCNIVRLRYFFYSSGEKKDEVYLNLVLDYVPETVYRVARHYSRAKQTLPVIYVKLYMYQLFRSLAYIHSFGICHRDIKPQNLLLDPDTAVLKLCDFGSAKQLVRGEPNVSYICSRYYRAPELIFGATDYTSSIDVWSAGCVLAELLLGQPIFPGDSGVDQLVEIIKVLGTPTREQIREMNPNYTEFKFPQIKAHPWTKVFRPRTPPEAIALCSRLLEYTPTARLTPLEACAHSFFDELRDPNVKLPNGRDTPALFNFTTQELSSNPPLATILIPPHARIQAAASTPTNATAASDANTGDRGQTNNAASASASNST
SMILES,IC50 [1] [µM],IC50 (Acetylcholinesterase) [µM],IC50 (Cholinesterase) [µM],"Papp at 18 h, 25 ug/ml (in vitro) [×10⁻⁶ cm/s]",other results
NC(=O)c1sc(-c2ccnc(NC(=O)C3CC3)c2)nc1OCCC1CCN(Cc2c(F)cccc2F)CC1,0.005,19.5,1.9,6.8,
NC(=O)c1sc(-c2ccnc(NC(=O)C3CC3)c2)nc1OCCC1CCN(Cc2ccc(F)cc2)CC1,0.038,4.5,17.6,8.2,
NC(=O)c1sc(-c2ccnc(NC(=O)C3CC3)c2)nc1OCCC1CCN(Cc2ccccc2F)CC1,0.261,7.8,41,,
CNC(=O)c1sc(-c2ccnc(NC(=O)C3CC3)c2)nc1OCC1CCN(Cc2ccc(F)c(F)c2)CC1,0.062,80,20,,
CCn1cc(C(=O)O)c(=O)c2cc(F)c(N3CCNC(C)C3)c(F)c21 (stereo not given) [LOMEFLOXACIN],,,,0.9,
NC(=O)c1sc(-c2ccnc(NC(=O)C3CC3)c2)nc1OCC1CCN(Cc2ccccc2)CC1,0.094,1.5,12.7,6.4,AUC(0-inf) [2]: 1820 ng·h/mL; Vd [3]: 55.2 L/kg; MRT last at 24 h [4]: 9.1 h; AUC(0-inf) [5]: 688 ng·h/mL; Cmax [6]: 507 ng/mL; CL/F [7]: 267 mL/min/kg; half-life [8]: 4.5 h; Vd [9]: 93.6 L/kg; MRT last at 24 h [10]: 8.1 h; bioavailability [11]: 40.7%; Tmax [12]: 6 min; Tmax [13]: 4.5 h; AUC(0-t) [14]: 1540 ng·h/mL; half-life [15]: 6.7 h; clearance [16]: 104 mL/min/kg; AUC(0-t) [17]: 622 ng·h/mL; Cmax [18]: 67.3 ng/mL
CNC(=O)c1sc(-c2ccnc(NC(=O)C3CC3)c2)nc1OCC1CCN(Cc2ccc(Cl)c(Cl)c2)CC1,0.041,97,65,,
NC(=O)c1sc(-c2ccnc(NC(=O)C3CC3)c2)nc1OCCC1CCN(Cc2ccc(F)c(F)c2)CC1,0.01,42.8,7.2,,
NC(=O)c1sc(-c2ccnc(NC(=O)C3CC3)c2)nc1OCCC1CCN(Cc2ccccc2Cl)CC1,0.027,3.7,301,6.8,
CNC(=O)c1sc(-c2ccnc(NC(=O)C3CC3)c2)nc1OCC1CCN(Cc2ccc(Br)cc2)CC1,0.026,> 1000,68,,
NC(=O)c1sc(-c2ccnc(NC(=O)C3CC3)c2)nc1O,0.011,> 1000,> 1000,,
CNC(=O)c1sc(-c2ccnc(NC(=O)C3CC3)c2)nc1OCC1CCN(Cc2ccccc2F)CC1,0.014,9,11,,

# Reference: ChEMBL document CHEMBL4680314, “Discovery of potent glycogen synthase kinase 3/cholinesterase inhibitors with neuroprotection as potential therapeutic agent for Alzheimer's disease” (Bioorg Med Chem, 2021)
